In patent US11629143B2, “HipK4 inhibitors and uses thereof” (Vibliome Therapeutics, LLC, priority 2020, dated 2023):

Tests used:
RIPK2 = RIPK2 (Homo sapiens, UniProt O43353); assay: Kinase panel (mobility shift); type: biochemical
In short: (§1)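 Each kinase was incubated with a fluorescently labeled substrate and compound in a standard reaction mix. After the reaction was stopped, product and substrate were separated on microfluidic chips by electrophoretic mobility shift. Activity came from comparing product and substrate peak fluorescence, graded A (95% or greater), B (90%-94%) or C (80%-89%) at 5 um.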

EPH-A6 = molecular target: T1, EPH-A6 (Homo sapiens, UniProt Q9UF33); assay: Kinase panel (mobility shift); type: biochemical
T1 sequence (Q9UF33 23-1036): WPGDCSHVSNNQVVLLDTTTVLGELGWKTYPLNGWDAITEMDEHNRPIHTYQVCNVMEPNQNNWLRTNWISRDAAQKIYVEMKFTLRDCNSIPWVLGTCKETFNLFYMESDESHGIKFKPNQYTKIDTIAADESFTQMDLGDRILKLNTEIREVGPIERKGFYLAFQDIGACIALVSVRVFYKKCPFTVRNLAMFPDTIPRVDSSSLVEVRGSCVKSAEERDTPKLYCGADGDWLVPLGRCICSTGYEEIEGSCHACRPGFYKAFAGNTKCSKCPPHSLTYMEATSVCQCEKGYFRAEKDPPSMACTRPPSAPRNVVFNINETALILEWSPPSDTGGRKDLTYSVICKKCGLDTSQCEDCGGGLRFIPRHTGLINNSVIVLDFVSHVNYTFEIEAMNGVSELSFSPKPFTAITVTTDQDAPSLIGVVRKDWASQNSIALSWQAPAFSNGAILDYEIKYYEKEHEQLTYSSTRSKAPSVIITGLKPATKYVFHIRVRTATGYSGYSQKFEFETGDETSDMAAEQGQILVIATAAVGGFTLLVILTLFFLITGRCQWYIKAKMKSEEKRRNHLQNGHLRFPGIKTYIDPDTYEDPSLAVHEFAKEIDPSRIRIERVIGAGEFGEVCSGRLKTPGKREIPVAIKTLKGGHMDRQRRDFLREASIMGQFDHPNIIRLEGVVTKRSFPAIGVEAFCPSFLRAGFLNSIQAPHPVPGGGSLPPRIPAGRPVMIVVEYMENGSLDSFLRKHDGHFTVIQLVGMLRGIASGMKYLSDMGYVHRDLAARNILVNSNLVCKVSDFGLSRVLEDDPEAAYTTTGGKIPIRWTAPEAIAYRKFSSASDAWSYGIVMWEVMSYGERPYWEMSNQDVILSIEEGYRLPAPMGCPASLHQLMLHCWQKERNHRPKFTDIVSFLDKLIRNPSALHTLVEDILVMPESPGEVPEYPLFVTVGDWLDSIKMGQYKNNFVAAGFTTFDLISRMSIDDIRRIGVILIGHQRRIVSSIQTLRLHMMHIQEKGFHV
In short: as §1

Sequence of RIPK2 (O43353 whole entry, species assumed): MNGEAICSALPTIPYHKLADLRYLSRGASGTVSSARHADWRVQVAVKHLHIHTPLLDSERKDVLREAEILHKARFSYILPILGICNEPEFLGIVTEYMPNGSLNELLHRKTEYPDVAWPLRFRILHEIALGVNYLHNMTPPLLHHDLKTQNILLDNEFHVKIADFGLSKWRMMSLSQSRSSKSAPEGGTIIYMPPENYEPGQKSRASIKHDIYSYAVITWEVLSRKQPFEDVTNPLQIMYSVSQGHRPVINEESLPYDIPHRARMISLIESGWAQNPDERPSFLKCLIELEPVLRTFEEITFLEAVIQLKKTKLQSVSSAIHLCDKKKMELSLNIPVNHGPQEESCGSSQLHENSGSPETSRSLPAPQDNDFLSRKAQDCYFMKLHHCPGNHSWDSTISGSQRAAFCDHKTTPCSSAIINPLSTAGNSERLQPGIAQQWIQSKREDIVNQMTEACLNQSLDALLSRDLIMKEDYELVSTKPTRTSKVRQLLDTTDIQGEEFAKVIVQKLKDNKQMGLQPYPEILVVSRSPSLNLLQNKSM

CSc1nc(C(=O)Nc2ccc(Oc3ccnc(C(=O)NC4CNC4)c3)c(F)c2)c(-c2ccc(F)cc2)o1 [Compound 29]
inhibition at 5 µM (RIPK2): 80 to 89%
inhibition at 5 µM (EPH-A6): 80 to 89%

[2H]C([2H])([2H])NC(=O)c1cc(Oc2ccc(NC(=O)c3nc(SC)oc3-c3ccc(F)s3)cc2F)ccn1 [Compound 35]
inhibition at 5 µM (RIPK2): 50 to 79%
inhibition at 5 µM (EPH-A6): 50 to 79%

CNC(=O)c1cc(Oc2ccc(NC(=O)c3nc(SC)oc3-c3ccc(F)s3)cc2F)ccn1 [Compound 16]
inhibition at 5 µM (RIPK2): < 50%
inhibition at 5 µM (EPH-A6): 50 to 79%

CSc1nc(C(=O)Nc2ccc(Oc3cc4cnn(C)c4cc3Br)c(F)c2)c(-c2ccc(F)cc2)o1 [Compound 2]
inhibition at 5 µM (RIPK2): < 50%
inhibition at 5 µM (EPH-A6): 50 to 79%

CNC(=O)c1ccc(Oc2ccc(NC(=O)c3nc(Cl)oc3-c3ccc(F)cc3)c(F)c2)cn1 [Compound 36]
inhibition at 5 µM (RIPK2): 50 to 79%
inhibition at 5 µM (EPH-A6): 50 to 79%

CNC(=O)c1cc(Oc2ccc(NC(=O)c3nc(NC)oc3-c3ccc(F)cc3)cc2F)ccn1 [Compound 14]
inhibition at 5 µM (RIPK2): 90 to 94%
inhibition at 5 µM (EPH-A6): 80 to 89%

CNC(=O)c1cc(Oc2ccc(NC(=O)c3nc(OC4CC4)oc3-c3ccc(F)cc3)cc2F)ccn1 [Compound 32]
inhibition at 5 µM (RIPK2): 50 to 79%
inhibition at 5 µM (EPH-A6): 90 to 94%

CSc1nc(C(=O)Nc2ccc(Oc3ccnc(C(=O)NCC(F)(F)F)c3)c(F)c2)c(-c2ccc(F)cc2)o1 [Compound 40]
inhibition at 5 µM (RIPK2): < 50%
inhibition at 5 µM (EPH-A6): < 50%

CSc1nc(C(=O)Nc2ccc(Oc3ccnc(C(=O)NC4CCN(C)CC4)c3)c(F)c2)c(-c2ccc(F)cc2)o1 [Compound 42]
inhibition at 5 µM (RIPK2): 50 to 79%
inhibition at 5 µM (EPH-A6): 50 to 79%

CNC(=O)c1cc(Oc2ccc(NC(=O)c3nc(S(C)(=O)=O)sc3-c3ccc(F)cc3)cc2F)ccn1 [Compound 13]
inhibition at 5 µM (RIPK2): 80 to 89%
inhibition at 5 µM (EPH-A6): ≥ 95%

CSc1nc(C(=O)Nc2ccc(Oc3ccnc(C(=O)NCCN(C)C)c3)c(F)c2)c(-c2ccc(F)cc2)o1 [Compound 41]
inhibition at 5 µM (RIPK2): 80 to 89%
inhibition at 5 µM (EPH-A6): 80 to 89%

CNC(=O)c1cc(Oc2ccc(NC(=O)c3nc(SC)oc3-c3ccc(F)cc3F)cc2F)ccn1 [Compound 12]
inhibition at 5 µM (RIPK2): 90 to 94%
inhibition at 5 µM (EPH-A6): 80 to 89%

CNC(=O)c1cc(Oc2ccc(NC(=O)c3nc(OC)oc3-c3ccc(F)c(F)c3)cc2F)ccn1 [Compound 24]
inhibition at 5 µM (RIPK2): 50 to 79%
inhibition at 5 µM (EPH-A6): 50 to 79%

CNC(=O)c1cc(Oc2c(F)cc(NC(=O)c3nc(NC)sc3-c3ccc(F)cc3)cc2F)ccn1 [Compound 19]
inhibition at 5 µM (RIPK2): 50 to 79%
inhibition at 5 µM (EPH-A6): 80 to 89%

COc1nc(C(=O)Nc2ccc(Oc3ccnc(C(=O)NCC(F)(F)F)c3)c(F)c2)c(-c2ccc(F)cc2)o1 [Compound 43]
inhibition at 5 µM (RIPK2): < 50%
inhibition at 5 µM (EPH-A6): < 50%

CNC(=O)c1cc(Oc2ccc(NC(=O)c3nc(SC)oc3-c3ccc(F)cc3F)cc2)ccn1 [Compound 6]
inhibition at 5 µM (RIPK2): ≥ 95%
inhibition at 5 µM (EPH-A6): ≥ 95%

CNC(=O)c1cc(Oc2ccc(NC(=O)c3nc(SC)oc3-c3ccc(F)cc3Cl)cc2)ccn1 [Compound 3]
inhibition at 5 µM (RIPK2): 90 to 94%
inhibition at 5 µM (EPH-A6): 50 to 79%

CSc1nc(C(=O)Nc2ccc(Oc3ccnc(C(=O)NC4COC4)c3)c(F)c2)c(-c2ccc(F)c(F)c2)o1 [Compound 37]
inhibition at 5 µM (RIPK2): < 50%
inhibition at 5 µM (EPH-A6): < 50%

CNC(=O)c1cc(Oc2ccc(NC(=O)c3nc(OCC(F)(F)F)oc3-c3ccc(F)cc3)cc2F)ccn1 [Compound 38]
inhibition at 5 µM (RIPK2): 50 to 79%
inhibition at 5 µM (EPH-A6): 80 to 89%

CNC(=O)c1cc(Oc2ccc(NC(=O)c3nc(NC)sc3-c3ccc(F)cc3F)cc2F)ccn1 [Compound 21]
inhibition at 5 µM (RIPK2): 50 to 79%
inhibition at 5 µM (EPH-A6): 50 to 79%

CNC(=O)c1cc(Oc2ccc(NC(=O)c3nc(SC(C)C)oc3-c3ccc(F)cc3)cc2F)ccn1 [Compound 34]
inhibition at 5 µM (RIPK2): 50 to 79%
inhibition at 5 µM (EPH-A6): 90 to 94%

CNC(=O)c1cc(Oc2ccc(NC(=O)c3nc(SC)oc3-c3ccc(Cl)s3)cc2)ccn1 [Compound 5]
inhibition at 5 µM (RIPK2): 50 to 79%
inhibition at 5 µM (EPH-A6): 50 to 79%

CNC(=O)c1cc(Oc2ccc(NC(=O)c3nc(COC)oc3-c3ccc(F)cc3)cc2F)ccn1 [Compound 30]
inhibition at 5 µM (RIPK2): 80 to 89%
inhibition at 5 µM (EPH-A6): ≥ 95%

CSc1nc(C(=O)Nc2ccc(Oc3ccnc(N)c3Cl)c(F)c2)c(-c2ccc(F)cc2)o1 [Compound 1]
inhibition at 5 µM (RIPK2): < 50%
inhibition at 5 µM (EPH-A6): < 50%

CSc1nc(C(=O)Nc2ccc(Oc3ccnc(-c4cnn(C)c4)c3)c(F)c2)c(-c2ccc(F)cc2)o1 [Compound 11]
inhibition at 5 µM (RIPK2): 50 to 79%
inhibition at 5 µM (EPH-A6): ≥ 95%

CSc1nc(C(=O)Nc2ccc(Oc3ccnc(C(=O)NC4COC4)c3)c(F)c2)c(-c2ccc(F)s2)o1 [Compound 28]
inhibition at 5 µM (RIPK2): < 50%
inhibition at 5 µM (EPH-A6): < 50%

CNC(=O)c1cc(Oc2ccc(NC(=O)c3nc(NC)sc3-c3ccc(F)cc3C)cc2F)ccn1 [Compound 23]
inhibition at 5 µM (RIPK2): 80 to 89%
inhibition at 5 µM (EPH-A6): 80 to 89%

COc1nc(C(=O)Nc2ccc(Oc3ccnc(C(=O)NC4COC4)c3)c(F)c2)c(-c2ccc(F)cc2)o1 [Compound 39]
inhibition at 5 µM (RIPK2): 50 to 79%
inhibition at 5 µM (EPH-A6): 80 to 89%

CSc1nc(C(=O)Nc2ccc(Oc3ccnc(C(=O)NC4COC4)c3)c(F)c2)c(-c2ccc(F)cc2)o1 [Compound 31]
inhibition at 5 µM (RIPK2): 50 to 79%
inhibition at 5 µM (EPH-A6): 80 to 89%

CNC(=O)c1cc(Oc2ccc(NC(=O)c3nc(OC)oc3-c3ccc(F)cc3)cc2F)ccn1 [Compound 15]
inhibition at 5 µM (RIPK2): 80 to 89%
inhibition at 5 µM (EPH-A6): 90 to 94%

CNC(=O)c1cc(Oc2ccc(NC(=O)c3nc(OC)oc3-c3ccc(F)s3)cc2F)ccn1 [Compound 25]
inhibition at 5 µM (RIPK2): < 50%
inhibition at 5 µM (EPH-A6): 50 to 79%

[2H]C([2H])([2H])NC(=O)c1cc(Oc2ccc(NC(=O)c3nc(SC)oc3-c3ccc(F)c(F)c3)cc2F)ccn1 [Compound 33]
inhibition at 5 µM (RIPK2): 50 to 79%
inhibition at 5 µM (EPH-A6): 50 to 79%

CNC(=O)c1cc(Oc2ccc(NC(=O)c3nc(SC)oc3-c3ccc(F)c(F)c3)cc2)ccn1 [Compound 4]
inhibition at 5 µM (RIPK2): 80 to 89%
inhibition at 5 µM (EPH-A6): 50 to 79%

CNC(=O)c1cc(Oc2ccc(NC(=O)c3nc(C4CC4)oc3-c3ccc(F)cc3)cc2F)ccn1 [Compound 26]
inhibition at 5 µM (RIPK2): 80 to 89%
inhibition at 5 µM (EPH-A6): 90 to 94%

CNC(=O)c1cc(Oc2ccc(NC(=O)c3nc(NC)oc3-c3ccc(F)s3)cc2F)ccn1 [Compound 17]
inhibition at 5 µM (RIPK2): < 50%
inhibition at 5 µM (EPH-A6): < 50%

CNC(=O)c1cc(Oc2ccc(NC(=O)c3nc(SC)oc3-c3ccc(OC)cc3)cc2)ccn1 [Compound 7]
inhibition at 5 µM (RIPK2): < 50%
inhibition at 5 µM (EPH-A6): < 50%

CSc1nc(C(=O)Nc2ccc(Oc3ccnc(C(=O)NC4CNC4)c3)c(F)c2)c(-c2ccc(F)s2)o1 [Compound 27]
inhibition at 5 µM (RIPK2): < 50%
inhibition at 5 µM (EPH-A6): < 50%
